Series [1] has as its system webbing clothes moth (Tineola bisselliella). Put plainly: Biological test 14: persistence of treated filter paper in cardboard box, webbing clothes moth larvae. As to conditions: 36 mg on filter paper. More on the design: key to degree of damage: -: no damage; +: slight damage; ++: heavy damage; +++: severe damage. Format: in vivo. As for the experimental part:
A filter paper (3.2 cm × 3.2 cm in size) treated with 36 mg of each of the present compounds and two wool muslin fabrics (25 cm × 25 cm in size) were hung down at the upper part of a corrugated cardboard box (29 cm × 29 cm × 29 cm in size). After standing at 25 °C and a humidity of 60 % for 1 week, two tea-strainer balls holding 7 to 10 middle instar larvae of webbing clothes moth (Tineola bisselliella) and one piece of wool muslin cloth (2 cm × 2 cm in size) were hung down at the upper part of the box. The box was closed with a lid. After one week, the box was opened, and the percent moribund and the degree of damage of the wool muslin cloth by the moths were examined. The same tests was repeated 2 weeks, 3 weeks and 5 weeks after the treatment to examine the persistance of the present compound. The degree of damage was represented by "-" in no damage, " + " in slight damage, " ++ " in heavy damage and "+++ " in severe damage.

In a further series the test system is rats. As to conditions: male 7-week old rats, into the stomach in corn oil, after 7 days. As for the experimental part: After subjecting the rats to a twenty-hour fasting, 0.1 ml of the diluted solution per 10g weight was forcibly applied into the stomach of four male 7-week old rats. The rats were given food and water four hours after the application and thereafter regularly fed and watered, and kept in a cage. After 7 days, the mortality was examined for the rats and LD50 was calculated.

Series [2] has as its system brown planthopper (Nilaparvata lugens). Put plainly: Biological test 2: rice plant stalk dipped in emulsion. Format: in vivo. As to conditions: Nilaparvata lugens, 144 h; 500 ppm aqueous emulsion, larvae, after 6 days. How it is done: A stalk of a rice plant was dipped for one minute in a 500 ppm aqueous emulsion obtained by diluting each emulsifiable concentrate of the present compounds prepared according to the formulation example 1. The rice plant stalk was air-dried and placed in a polyethylene cup (diameter : 5.5 cm) where filter paper (diameter : 5.5 cm) impregnated with 1 ml of water was put. Approximately 30 larvae of brown planthopper (Nilaparvata lugens) were put in the polyethylene cup. After 6 days, the mortality of the larvae was examined.

The test system of series [3] is common mosquitoes (Culex pipiens pallens). Put plainly: Biological test 6: mosquito larvae in treated water. Format: in vivo. As to conditions: Culex pipiens, 24 h; 3.5 ppm active ingredient in water, last-instar larvae, after one day. How it is done: 0.7 ml of aqueous emulsion, obtained by diluting emulsifiable concentrate prepared for each of the present compounds according to the formulation example 1 was added to 100 ml of ion-exchanged water (concentration of active ingredient : 3.5 ppm). Twenty last-instar larvae of common mosquitoes (Culex pipiens pallens) were left in the water. After one day, the mortality of the common mosquitoes was examined.

Series [4] has the same test system. The series can be described thus: Biological test 7: oil solution sprayed in glass chamber, knock-down. Format: in vivo. The settings on record: 0.7 ml of 0.1 % oil solution sprayed, 0.34 m^3 chamber, after 15 minutes. How it is done:
Ten female common mosquitoes (Culex pipiens pallens) were left in a glass chamber (70 cm × 70 cm × 70 cm : 0.34 m^3). 0.7 ml of 0.1 % oil solution prepared for each of the present compounds according to the formulation example 7 was sprayed with a spray gun at 0.8 atmospheric pressure. After 15 minutes, the rate of knocked-down mosquitoes was examined.

The test system is the same in series [5]. Put plainly: Biological test 8: mosquito-coil in glass chamber, knock-down. As to conditions: 1.0 g of 0.3 % mosquito-coil, 0.34 m^3 chamber, after 15 minutes. Format: in vivo. As for the experimental part:
Mosquito-coil containing the present compound in an amount of 0.3 % was prepared according to the formulation example 10 for the present compounds. Ten female common mosquitoes (Culex pipiens pallens) were left in a glass chamber (70 cm × 70 cm × 70 cm : 0.34 m^3) and 1.0 g of 0.3 % mosquito-coil having both ends lit was placed in the glass chamber. After 15 minutes, the rate of knocked-down mosquitoes was examined.

In series [6] the test system is houseflies (Musca domestica). Put plainly: Biological test 9: topical application of acetone solution to houseflies. Format: in vivo. As to conditions: 5 µg / one housefly, after 24 hours. As for the experimental part:
After 24 hours, the percent moribund was examined (two replicate).

Series [7] relates to houseflies (Musca domestica). Put plainly: Biological test 10: vapour exposure over treated aluminum plate, houseflies. Format: in vivo. As to conditions: 0.64 ml of 0.05 (w/v) % acetone solution, no direct contact, 25 °C for 120 minutes, after 24 hours. As for the experimental part:
(§1) After 0.64 ml of a 0.05 (w/v) % acetone solution of the present compounds was dropped into an aluminum plate (bottom diameter : 7 cm), acetone was air-dried. Ten female houseflies (Musca domestica) were left in a polyethylene cup (diameter : 9 cm; depth : 4.5 cm) and the cup was sealed with a 16-mesh nylon net to prevent direct contact of the houseflies with the compound. The cup was placed upside down on the aluminum plate at 25 °C for 120 minutes. The cup was then removed from the aluminum plate, and water and feed were given to the houseflies. After 24 hours, the percent moribund was examined (two replicate).

Series [8] relates to common mosquitoes (Culex pipiens pallens). The series can be described thus: Biological test 11: vapour exposure over treated aluminum plate, mosquitoes. Format: in vivo. The settings on record: Culex pipiens, 24 h. As for the experimental part:
as §1, with “common mosquitoes (Culex pipiens pallens)” for “houseflies (Musca domestica)”, “mosquitoes” for “houseflies”, “mosquitoes.” for “houseflies.”, “mortality” for “percent moribund”

Series [9] deals with webbing clothes moth (Tineola bisselliella). Put plainly: Biological test 12: topical application to webbing clothes moth larvae. Format: in vivo. The settings on record: 3 µg / insect, after 7 days. How it is done:
Each of the present compounds diluted with acetone to a predetermined concentration was applied to ten middle instar larvae of webbing clothes moth (Tineola bisselliella) at the central part of the back so as to give the active ingredient in a dose of 3 µg / insect. A wool muslin fabric (2 cm × 2 cm in size) was given to the webbing clothes moths as the food. After 7 days, the mortality and the degree of damage of the wool muslin fabric by the moths were examined (two replicate).

Series [10] shares this test system. Put plainly: Biological test 13: volatile agent hung in cup with webbing clothes moth larvae. As to conditions: volatile agent (100 µg on filter paper), 25 °C for 1 week. Format: in vivo. How it is done: A wool muslin fabric (2 cm × 2 cm in size) was placed on the bottom of a polyethylene cup (bottom diameter : 10 cm, opening part diameter : 12.5 cm, height : 9.5 cm, volume : 950 cm^3 ). Ten middle instar larvae of webbing clothes moth (Tineola bisselliella) were put in the cup and each of the volatile agents prepared according to the formulation example 14 was hung from the cap in the interior of the cup. After standing at 25 °C for 1 week, the cup was opened, and the mortality and the degree of damage of the wool muslin fabric by the moths were examined (two replicate).

In series [11] the test system is tobacco cutworm (Spodoptera litura). Put plainly: Biological test 1: artificial bait impregnated with emulsion. The settings on record: Spodoptera litura, in Nicotiana tabacum, 144 h.
The subject of series [12] is southern corn rootworm (Diabrotica undecimpunctata howardi). Put plainly: Biological test 3: treated filter paper with eggs and sprouting corn. As to conditions: Diabrotica undecimpunctata, in Zea mays, 192 h, read-out: mortality of the hatched larvae and eggs.
In series [13] the test system is German cockroaches (Blattella germanica). The series can be described thus: Biological test 5: treated filter paper with sucrose bait, cockroaches low sensitive to pyrethroids. As to conditions: Blattella germanica, 144 h.

In the case of `CC1(C)C(/C=C(\Cl)C(F)(F)F)C1C(=O)OCc1coc(Cc2ccccc2)c1` (centres unmarked) [A, reference compound], the degree of damage result in series [1] (After 1 week), in series [1] (After 2 weeks), in [1] (After 3 weeks) and in series [1] (After 5 weeks) was “+++” in each case. Moreover, the percent moribund in [1] (After 1 week) is 0%; in series [1] (After 2 weeks), 0%; in series [1] (After 3 weeks) it was 5%; in [1] (After 5 weeks), 5%. Further, the LD50 result in the series on rats is “less than 50 mg/kg”.
As for `Cc1ccc(COC(=O)[C@@H]2[C@H](/C=C(\Cl)C(F)(F)F)C2(C)C)o1` (racemic) [present compound (1), 5-methyl-2-furfuryl (1RS,cis)-3-(Z-2-chloro-3,3,3-trifluoroprop-1-enyl)-2,2-dimethylcyclopropanecarboxylate], the mortality at 500 ppm was at least 90% in series [2] and 100% in series [13]. In [3], this compound came in with a mortality at 3.5 ppm of at least 90%. In addition, the “rate of knocked-down mosquitoes” value is on record as at least 90% in series [4] and 100% in series [5]. Besides, the percent moribund in series [6], in series [7], in [1] (After 1 week), in series [1] (After 2 weeks), in series [1] (After 3 weeks) and in [1] (After 5 weeks) was 100% throughout. Moreover, the mortality at 500 µg/mL in series [8] and in series [11] was 100% in each case. Moreover, the “degree of damage of the wool muslin fabric” value in series [9] and in [10] was “no damage” throughout. For the same compound, in series [9] (Tineola bisselliella, 168 h), the mortality at 0.003 mg came to 100%. In addition, in [10] (Tineola bisselliella, 168 h), the mortality at 0.1 mg was 100%. Moreover, the degree of damage entry in series [1] (After 1 week), in series [1] (After 2 weeks), in series [1] (After 3 weeks) and in series [1] (After 5 weeks) was “-” each time. Moreover, the LD50 in the series with rats is recorded as 300 mg/kg. Besides, the mortality at 50 ppm in series [12] is 100%.

The LD50 is the dose expected to kill half of the subjects tested. A word on the mortality: it is the percentage killed.
